Data: the Kinase Knowledgebase extract (Sharma et al. 2016)

Each compound was assayed against PIK3CA (human) (UniProt P42336) (assay: Inhibition of PIK3CA Kinase Activity).
Sequence of PIK3CA (human) (P42336 whole entry, looked up): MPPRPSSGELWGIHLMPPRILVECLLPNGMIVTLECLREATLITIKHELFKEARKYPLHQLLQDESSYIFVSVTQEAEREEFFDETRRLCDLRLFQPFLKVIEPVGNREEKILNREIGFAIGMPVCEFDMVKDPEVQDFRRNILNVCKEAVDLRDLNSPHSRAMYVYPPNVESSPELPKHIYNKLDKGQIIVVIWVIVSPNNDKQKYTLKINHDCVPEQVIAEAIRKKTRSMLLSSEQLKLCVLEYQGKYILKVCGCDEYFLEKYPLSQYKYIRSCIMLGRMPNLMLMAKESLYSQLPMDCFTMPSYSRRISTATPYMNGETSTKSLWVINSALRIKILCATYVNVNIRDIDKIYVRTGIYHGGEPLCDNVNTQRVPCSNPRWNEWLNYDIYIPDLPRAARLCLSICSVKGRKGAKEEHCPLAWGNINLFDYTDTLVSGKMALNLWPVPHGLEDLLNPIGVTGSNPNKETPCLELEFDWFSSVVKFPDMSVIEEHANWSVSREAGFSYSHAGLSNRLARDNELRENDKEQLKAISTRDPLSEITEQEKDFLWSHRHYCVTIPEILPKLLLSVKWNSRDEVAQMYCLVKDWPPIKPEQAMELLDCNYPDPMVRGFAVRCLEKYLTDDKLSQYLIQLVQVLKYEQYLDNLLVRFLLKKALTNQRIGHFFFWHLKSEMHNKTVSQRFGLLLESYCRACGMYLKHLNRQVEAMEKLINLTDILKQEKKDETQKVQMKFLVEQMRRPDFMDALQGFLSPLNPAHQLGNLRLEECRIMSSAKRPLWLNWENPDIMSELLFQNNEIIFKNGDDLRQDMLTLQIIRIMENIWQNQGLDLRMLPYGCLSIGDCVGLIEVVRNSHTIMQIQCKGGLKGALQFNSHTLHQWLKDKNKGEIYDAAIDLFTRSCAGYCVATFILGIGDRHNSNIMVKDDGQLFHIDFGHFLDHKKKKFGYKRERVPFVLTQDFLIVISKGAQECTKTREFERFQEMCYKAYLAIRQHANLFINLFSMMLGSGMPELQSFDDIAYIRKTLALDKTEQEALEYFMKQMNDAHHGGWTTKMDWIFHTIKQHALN

SMILES	IC50
CC1(C)CCc2ncnc(N3CCOc4ccc(-c5cnc6c(c5)S(=O)(=O)NC(=O)N6)cc4C3)c2C1	50 to 250 nM
Cc1nc2ccc(-c3ccc4c(c3)CN(c3ncnc(C)c3Cc3cccc(Cl)c3)CCO4)cc2[nH]1	10 to 50 nM
CC1(C)CCc2ncnc(N3CCOc4ccc(-c5cnc(Cl)c(NS(C)(=O)=O)c5)cc4C3)c2C1	≤ 10 nM
COc1cc2nccc(N3CCOc4ccc(-c5ccc6nc(N)[nH]c6c5)cc4C3)c2cc1OC	10 to 50 nM
CCN(CC)Cc1nc2c(c(N3CCOc4ccc(-c5cnc6nc(C)[nH]c6c5)cc4C3)n1)CC(C)(C)CC2	10 to 50 nM
CNc1ncc(-c2ccc3c(c2)CN(c2ncnc4c2CC(C)(C)CC4)CCO3)cc1NS(C)(=O)=O	50 to 250 nM
CCN(Cc1nc2c(c(N3CCOc4ccc(-c5cnc6nc(C)[nH]c6c5)cc4C3)n1)CC(C)(C)CC2)C(C)C	10 to 50 nM
CC[C@H](C)NCc1nc2c(c(N3CCOc4ccc(-c5cnc6nc(C)[nH]c6c5)cc4C3)n1)CC(C)(C)CC2	10 to 50 nM
CCNc1nc(N2CCOc3ccc(-c4ccc5nc(NCC)[nH]c5c4)cc3C2)c2ccccc2n1	50 to 250 nM
Cc1ncc(-c2ccc3c(c2)CN(c2ncnc4c2CC(C)(C)CC4)CCO3)cc1NS(C)(=O)=O	10 to 50 nM
CCNc1nc2ccc(-c3ccc4c(c3)CN(c3ccnc5c(F)cccc35)CCO4)cc2[nH]1	≤ 10 nM
Cc1c(NC2CCN(C)CC2)ncnc1N1CCOc2ccc(-c3cnc4nc(C5CC5)[nH]c4c3)cc2C1	10 to 50 nM
COc1ccc2c(N3CCOc4ccc(-c5cnc(Cl)c(NS(C)(=O)=O)c5)cc4C3)ncnc2c1	≤ 10 nM
Cc1nc2ccc(-c3ccc4c(c3)CN(c3ncnc5cc(Br)ccc35)CCO4)cc2[nH]1	50 to 250 nM
CCOc1ccc2ncnc(N3CCOc4ccc(-c5ccc6nc(C)[nH]c6c5)cc4C3)c2c1	50 to 250 nM
Cc1nc(C)c(CC2CC2)c(N2CCOc3ccc(-c4cnc5nc(C6CC6)[nH]c5c4)cc3C2)n1	10 to 50 nM
COc1c(OCCN(C)C)ccc2c(N3CCOc4ccc(-c5ccc6nc(C)[nH]c6c5)cc4C3)ncnc12	250 to 1000 nM

SMILES	IC50
Cc1nc2ncc(-c3ccc4c(c3)CN(c3ncnc5c3CCC(CO)C5)CCO4)cc2[nH]1 (centres undefined)	10 to 50 nM
COc1cc2c(N3CCOc4ccc(-c5ccc6nc(C)[nH]c6c5)cc4C3)ncnc2cc1Br	250 to 1000 nM
CC1(C)CCc2ncnc(N3CCOc4ccc(-c5cnc(C(N)=O)c(N)c5)cc4C3)c2C1	250 to 1000 nM
CCNc1nc2ccc(-c3ccc4c(c3)CN(c3ncnc5cc(OC)c(OC)cc35)CCO4)cc2[nH]1	10 to 50 nM
CCOC(=O)Nc1nc2ncc(-c3ccc4c(c3)CN(c3ncnc5c3CC(C)(C)CC5)CCO4)cc2[nH]1	50 to 250 nM
COC(=O)Nc1nc2ncc(-c3ccc4c(c3)CN(c3ncnc5c3CC(C)(C)C=C5)CCO4)cc2[nH]1	≤ 10 nM
Cc1nc2ncc(-c3ccc4c(c3)CN(c3ncnc5c3CC(F)(F)CC5)CCO4)cc2[nH]1	250 to 1000 nM
CC1=CC(C)(C)Cc2c1ncnc2N1CCOc2ccc(-c3cnc(N)c(S(=O)(=O)N4CC[C@@H](N)C4)c3)cc2C1	50 to 250 nM
CN(c1cc(-c2ccc3c(c2)CN(c2ncnc4c2CC(C)(C)CC4)CCO3)cnc1Cl)S(C)(=O)=O	250 to 1000 nM
Cc1ncnc(N2CCOc3ccc(-c4ccc5nc(N)[nH]c5n4)cc3C2)c1Cc1ccc(F)cc1	10 to 50 nM
CC1(C)CCc2ncnc(N3CCOc4ccc(-c5cnc(N)c(S(=O)(=O)N6CC(N)C6)c5)cc4C3)c2C1	10 to 50 nM
CCNC(=O)c1ccc(-c2ccc3c(c2)CN(c2ccnc4ccccc24)CCO3)cc1	250 to 1000 nM
CCSc1nc2c(c(N3CCOc4ccc(-c5ccc6nc(C)[nH]c6c5)cc4C3)n1)CCC2	250 to 1000 nM
c1cc(N2CCOc3ccc(-c4cnc5nc[nH]c5c4)cc3C2)ncn1	250 to 1000 nM
CC1(C)CCc2ncnc(N3CCOc4ccc(-c5cnc(N)c(S(=O)(=O)N6CCCC6)c5)cc4C3)c2C1	50 to 250 nM
COc1ccc2c(N3CCOc4ccc(-c5cnc(N)c(S(=O)(=O)C[C@@H](C)CO)c5)cc4C3)ncnc2c1	≤ 10 nM
Cc1c(NCC2CCN(C)CC2)ncnc1N1CCOc2ccc(-c3cnc4nc(C5CC5)[nH]c4c3)cc2C1	250 to 1000 nM
